From patent US20150218514A1, “PROMOTER OF DIFFERENTIATION FROM HEPATIC PROGENITOR CELL INTO HEPATIC CELL, AND USE THEREOF” (NATIONAL CANCER CENTER, priority 2012, published 2015)

Columns and labels:
[1] = non-patent document 12; cited from earlier work
[2] = tested on: HepG2 cells; assay: PAS staining of HepG2 cells (glycogen storage capacity); format: cell-based, human; conditions: 2.5 μM; culture for 14 days; compared to control without inhibitor
Description: (§1) HepG2 cells (ATCC) were plated on a 35 mm cell culture dish at 7×10^5 cells, and cultured in DMEM (Invitrogen Corporation) added with 100 IU/mL penicillin-100 μg/mL streptomycin solution (Invitrogen Corporation), 10% fetal bovine serum (Thermo Fisher Scientific K.K.), and a substance that inhibits DNA methylation (5-aza-2′-deoxycytidine: 5-aza (decitabine): 2.5 μM). The medium was exchanged every day.

[3] = tested on: HepG2 cells; conditions: HepG2 cells treated for 2 days; non-patent document 8; cited from earlier work
[4] = tested on: Hepatoblastoma HepG2 cells; assay: Morphology of HepG2 cells cultured with substance that inhibits DNA methylation caused by Dnmt-1; format: cell-based, human; conditions: 2.5 μM; day 14 of culture
Description: as §1, with “Hepatoblastoma HepG2” for “HepG2”, “(American Type Culture Collection: ATCC)” for “(ATCC)”

[5] = tested on: Mouse hepatic progenitor cells; assay: Expression level of hepatocyte markers after differentiation induction of mouse hepatic progenitor cells (real-time PCR); format: cell-based; conditions: for expression level of Cyp17a1 / expression level of G6pc / expression level of Tat / expression level of albumin: 100 nM siRNA introduced on day 2, day 6 of culture, compared to control siRNA (siCtrl)
Description: To a basal medium for hepatocyte were added 5 μg/mL of insulin (Sigma-Aldrich Corporation), 25 ng/mL of epidermal growth factor (EGF) (Sigma-Aldrich Corporation), 25 ng/mL of hepatocyte growth factor (HGF) (Peprotech), 12.5 ng/mL of oncostatin M (Sigma-Aldrich Corporation), 5×10^−7M hydrocortisone 21-hemisuccinate sodium salt (Sigma-Aldrich Corporation) and 10^−7 M dexamethasone (Sigma-Aldrich Corporation) to prepare the medium.
The hepatic parenchymal cells were diluted with HEPES buffer added with 2% fetal bovine serum to prepare a 10^7 cells/100 μL cell suspension, which was transferred into a 5 mL round-bottom tube. A mouse FcR blocking antibody in EasySep Mouse Biotin Positive Selection Kit ([…] Technologies Inc) was added at 1 μL per 10^7 cells, and the mixture was admixed by tapping the tube. Biotin-labeled anti-E-cadherin antibody (eBioscience) was added at 2-4 μL per 10^7 cells, and the mixture was left standing at room temperature for 15 min while stirring the tube every 2-3 minutes. Biotin Selection Cocktail in EasySep Mouse Biotin Positive Selection Kit was added at 10 μL per 10^7 cells, and the mixture was left standing at room temperature for 15 min with occasional stirring. Magnetic particles in EasySep Mouse Biotin Positive Selection Kit were added at 5 μL per 10^7 cells, and the mixture was stirred and left standing at room temperature for 10 min. To the cell suspension was added a medium for cell isolation, and the volume was adjusted to 2.5 mL. The mixture was suspended with a 2 mL plastic pipette, and the tube was placed in an exclusive magnet ([…] Technologies Inc.) and left standing at room temperature for 10 min. The exclusive magnet containing the tube was reversed for 3 sec, and a non-hepatic progenitor cell fraction was removed (purification operation: first time). The tube was taken out from the exclusive magnet, 2.5 mL of the medium for cell isolation was added, and a purification operation was performed again (purification operation: second time). Furthermore, 2.5 mL of the medium for cell isolation was added, and a purification operation was performed for the third time (purification operation: third time). The cells remaining in the tube are the hepatic progenitor cells.
Total RNA was extracted from cultured cells, liver cancer cell lines, and mouse and human normal hepatic tissues by using miRNeasy Mini Kit (QUIAGEN). The total RNA was quantified by NanoDrop 1000 spectrophotometer (Thermo Fisher Scientific K.K.). The hepatic tissues recovered from mouse were placed in ice-cooled phosphate buffer and disrupted before extraction of RNA. Red blood cells were lysed in Red Blood Cell Lysis Buffer (Sigma-Aldrich Corporation).
(§2) RNA was quantified by the real-time PCR method using 7300 real-time PCR system (Applied Biosystems) and TaqMan MicroRNA Assays (Applied Biosystems). The miRNA expression was standardized at 6NU6B level. For quantification of messenger RNA, total RNA sample was treated with DNase (TURBO DNA-free kit: Ambion Inc.), and cDNA was synthesized from 1 μg of total RNA by using reverse transcriptase (SuperScript III Reverse Transcriptase: Ambion Inc.). For quantification, SYBR Green (PlatinumSYBR Green quantitative PCR SuperMix UDG: Invitrogen Corporation) was used. The reaction for real-time PCR was performed at 95° C., 2 min, 40 cycles (95° C. for 15 sec, 60° C. for 30 sec). The cDNA expression level was standardized by GAPDH.

[6] = tested on: Dnmt-1; assay: Dnmt-1 expression level after differentiation induction of mouse hepatic progenitor cells (real-time PCR); format: cell-based; conditions: 100 nM siRNA; day 6 of culture; compared to control siRNA (siCtrl)
Description: as §2, with “GAPDH. […]” for “GAPDH.”
Mouse hepatic progenitor cells were plated at 4×10^4 cells/cm^2 in a 35 mm cell culture dish coated with type I collagen, […], after confluence (after day 4 of culture), the cells were cultured in the medium for hepatic progenitor cells free of epidermal growth factor (EGF) and fetal bovine serum. […] Total RNA was extracted, and Dnmt-1 was quantified by the real-time PCR method. […]

Nc1ncn([C@H]2C[C@H](O)[C@@H](CO)O2)c(=O)n1 [5-aza-2′-deoxycytidine]
apoptosis [1]: induce apoptosis | cytotoxicity [1]: high cytotoxicity | glycogen storage capacity (PAS staining) [2]: high glycogen storage capacity | mRNA level of CYP gene [3]: increases | cell morphology [4]: morphology specific to mature hepatocyte (multiple nuclei, clear cell boundary)

O=C(O)C(Cc1c[nH]c2ccccc12)N1C(=O)c2ccccc2C1=O (centres unmarked) [RG108]
expression of albumin ([5]; RG108 20 or 100 μM in medium from day 2, day 7 of culture, compared to control): high level | effect of promoting differentiation into a hepatocyte ([5]; among the substances that inhibit DNA methylation): high effect

siDnmt-1a: double stranded RNA, sense strand SEQ ID NO: 9 and antisense strand SEQ ID NO: 10; siRNA that suppresses expression of Dnmt-1 (sense GGUAGAGAGUUACGACGAATT; antisense UUCGUCGUAACUCUCUACCTG; chemistry not given here)
expression of Dnmt-1 [6]: suppressed | expression level of Cyp17a1 [5]: high expression levels | expression level of G6pc [5]: high expression levels | expression level of Tat [5]: high expression levels | expression level of albumin [5]: high expression levels

siDnmt-1b: double stranded RNA, sense strand SEQ ID NO: 11 and antisense strand SEQ ID NO: 12; siRNA that suppresses expression of Dnmt-1 (sense CAACGGAUCCUAUCACACUTT; antisense AGUGUGAUAGGAUCCGUUGTA; chemistry not given here)
expression of Dnmt-1 [6]: suppressed | expression level of Cyp17a1 [5]: high expression levels | expression level of G6pc [5]: high expression levels | expression level of Tat [5]: high expression levels | expression level of albumin [5]: high expression levels
